Laboratory results as given in ChEMBL document CHEMBL1201862, “PubChem BioAssay data set” (2004).
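48-hour exposure; five concentrations; linearly interpolated endpoints. At the GI50, growth is halved.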 Active and inactive are the calls of the source. Cut-off read from the data, not from the text of the source: active = GI50 up to about 1.1 µM and inactive = higher.

What was measured:
Assay in all cases: NCI-60 cell line screen, 48 h
786-0 = system: 786-0
BT-549 = system: BT-549
DU-145 = system: DU-145
EKVX = system: EKVX
K562 = system: K562
MDA-MB-231 = system: MDA-MB-231
MDA-MB-435 = system: MDA-MB-435
MOLT-4 = system: MOLT-4
NCI-H23 = system: NCI-H23
NCI-H460 = system: NCI-H460
NCI/ADR-RES = system: NCI/ADR-RES
OVCAR-3 = system: OVCAR-3
OVCAR-4 = system: OVCAR-4
PC-3 = system: PC-3
SF-295 = system: SF-295
SK-MEL-5 = system: SK-MEL-5
SK-OV-3 = system: SK-OV-3
SNB-19 = system: SNB-19
SR = system: SR
SW-620 = system: SW-620

Measured: GI50

O=C(/C=C/c1ccc(O)c(O)c1)NC(CO)C(=O)O (stereo not given)
inactive: 786-0 > 100 µM | BT-549 > 100 µM | DU-145 > 100 µM | EKVX > 100 µM | K562 > 100 µM | MDA-MB-231 > 100 µM | MDA-MB-435 > 100 µM | MOLT-4 > 100 µM | NCI-H23 > 100 µM | NCI-H460 > 100 µM | NCI/ADR-RES 2.59 µM | OVCAR-3 > 100 µM | OVCAR-4 > 100 µM | PC-3 > 100 µM | SF-295 > 100 µM | SK-MEL-5 > 100 µM | SK-OV-3 > 100 µM | SNB-19 > 100 µM | SR > 100 µM | SW-620 > 100 µM

C=CCn1c(=O)c2ccccc2[n+]2c(C)c(C(=O)OCC)sc12
inactive: 786-0 > 100 µM | BT-549 > 100 µM | DU-145 > 100 µM | EKVX > 100 µM | K562 > 100 µM | MDA-MB-231 > 100 µM | MDA-MB-435 > 100 µM | MOLT-4 > 100 µM | NCI-H23 > 100 µM | NCI-H460 > 100 µM | NCI/ADR-RES > 100 µM | OVCAR-3 > 100 µM | OVCAR-4 > 100 µM | PC-3 > 100 µM | SF-295 42.7 µM | SK-MEL-5 > 100 µM | SK-OV-3 > 100 µM | SNB-19 > 100 µM | SR > 100 µM | SW-620 > 100 µM

COc1ccc(S(=O)(=O)N2C(=O)CCC2C(=O)NN)cc1 (stereo not given)
inactive: 786-0 > 100 µM | BT-549 > 100 µM | DU-145 > 100 µM | EKVX > 100 µM | K562 > 100 µM | MDA-MB-231 > 100 µM | MDA-MB-435 > 100 µM | MOLT-4 > 100 µM | NCI-H23 > 100 µM | NCI-H460 > 100 µM | NCI/ADR-RES > 100 µM | OVCAR-3 > 100 µM | OVCAR-4 > 100 µM | PC-3 > 100 µM | SF-295 > 100 µM | SK-MEL-5 > 100 µM | SK-OV-3 > 100 µM | SNB-19 > 100 µM | SR > 100 µM | SW-620 > 100 µM
